By EC50 is commonly meant the concentration needed to bring the measured effect to its halfway point. Low values mean an effect from little substance, high ones a need for much substance.

This note sets out measurements from BindingDB's records for doi:10.1021/jm030505a (Abbott Laboratories, 2004).

The structures appear in SMILES notation.

Assay [1] is described as follows: In vitro effective concentration tested on HEK293 cells co-transfected with ferret Dopamine receptor D4 using FLIPR assay.
Assay [2] can be described thus: In vitro effective concentration tested on HEK293 cells co-transfected with ferret Dopamine receptor D2 using FLIPR assay.

`NCCc1ccc(O)c(O)c1` yielded an EC50 in assay [1] of 2.7 nM. Same read-out and setting: then `c1ccc(N2CCN(Cc3nc4ccccc4[nH]3)CC2)nc1` [2-((4-(pyridin-2-yl)piperazin-1-yl)methyl)-1H-benzo[d]imidazole], with 23.2 nM; and `CN1CCc2cccc3c2[C@H]1Cc1ccc(O)c(O)c1-3` [APOKYN], with 1.5 nM. Take `Fc1ccc2[nH]c(CN3CCN(c4ccccn4)CC3)cc2c1` [5-Fluoro-2-(4-pyridin-2-yl-piperazin-1-ylmethyl)-1H-indole]: the EC50 in assay [2] amounted to 527 nM; in assay [1], 22 nM.
